What was measured:
[1] = target: T1, HiBit-BRM fusion protein (Homo sapiens, UniProt P51531); assay: HiBiT-BRM cell-based degradation assay (Nano-Glo HiBiT Lytic Detection, 24 h); conditions: HeLa cell line expressing HiBiT-BRM; for DC50: read-out: BRM HiBit Degradation IC50
T1 construct: expressed in transfected cells
Experimental: (§1) Procedure: A stable HeLa cell line expressing HiBiT-BRM was generated. On day 0, 5000 cells were seeded in 40 μL of media into each well of 384-well cell culture plates. On day 1, cells were treated with 120 nL DMSO or 120 nL of 3-fold serially DMSO-diluted compounds (10 points in duplicate with 30 μM as final top dose). Subsequently plates were incubated for 24 h in a standard tissue culture incubator and equilibrated at room temperature for 15 minutes. Nano-Glo HiBiT Lytic Detection System (Promega N3050) reagent was freshly prepared and 20 ul was added to each well. Upon addition of this LgBit-containing reagent, the HiBiT and LgBiT proteins associate to form the luminescent NanoBiT luciferase. The plates were shaken for 10 minutes at room temperature and the bioluminescence read using an EnVision plate reader (PerkinElmer).
(§2) The degradation % was calculated using the following formula: % degradation=100%−100%×(LumSample−LumLC)/(LumHC−LumLC). DMSO treated cells are employed as High Control (HC) and 2 μM of a known BRM/BRG1 degrader standard treated cells are employed as Low Control (LC).

[2] = target: T2, HiBit-BRG1 fusion protein (Homo sapiens, UniProt P51532); assay: HiBiT-BRG1 cell-based degradation assay (Nano-Glo HiBiT Lytic Detection, 24 h); conditions: HeLa cell line expressing HiBit-BRG1 and LgBit; for Dmax: read-out: BRG1 HiBit Degradation Maximum (%)
T2 construct: expressed in transfected cells
T2 sequence (P51532 whole entry, the tested form may be a part): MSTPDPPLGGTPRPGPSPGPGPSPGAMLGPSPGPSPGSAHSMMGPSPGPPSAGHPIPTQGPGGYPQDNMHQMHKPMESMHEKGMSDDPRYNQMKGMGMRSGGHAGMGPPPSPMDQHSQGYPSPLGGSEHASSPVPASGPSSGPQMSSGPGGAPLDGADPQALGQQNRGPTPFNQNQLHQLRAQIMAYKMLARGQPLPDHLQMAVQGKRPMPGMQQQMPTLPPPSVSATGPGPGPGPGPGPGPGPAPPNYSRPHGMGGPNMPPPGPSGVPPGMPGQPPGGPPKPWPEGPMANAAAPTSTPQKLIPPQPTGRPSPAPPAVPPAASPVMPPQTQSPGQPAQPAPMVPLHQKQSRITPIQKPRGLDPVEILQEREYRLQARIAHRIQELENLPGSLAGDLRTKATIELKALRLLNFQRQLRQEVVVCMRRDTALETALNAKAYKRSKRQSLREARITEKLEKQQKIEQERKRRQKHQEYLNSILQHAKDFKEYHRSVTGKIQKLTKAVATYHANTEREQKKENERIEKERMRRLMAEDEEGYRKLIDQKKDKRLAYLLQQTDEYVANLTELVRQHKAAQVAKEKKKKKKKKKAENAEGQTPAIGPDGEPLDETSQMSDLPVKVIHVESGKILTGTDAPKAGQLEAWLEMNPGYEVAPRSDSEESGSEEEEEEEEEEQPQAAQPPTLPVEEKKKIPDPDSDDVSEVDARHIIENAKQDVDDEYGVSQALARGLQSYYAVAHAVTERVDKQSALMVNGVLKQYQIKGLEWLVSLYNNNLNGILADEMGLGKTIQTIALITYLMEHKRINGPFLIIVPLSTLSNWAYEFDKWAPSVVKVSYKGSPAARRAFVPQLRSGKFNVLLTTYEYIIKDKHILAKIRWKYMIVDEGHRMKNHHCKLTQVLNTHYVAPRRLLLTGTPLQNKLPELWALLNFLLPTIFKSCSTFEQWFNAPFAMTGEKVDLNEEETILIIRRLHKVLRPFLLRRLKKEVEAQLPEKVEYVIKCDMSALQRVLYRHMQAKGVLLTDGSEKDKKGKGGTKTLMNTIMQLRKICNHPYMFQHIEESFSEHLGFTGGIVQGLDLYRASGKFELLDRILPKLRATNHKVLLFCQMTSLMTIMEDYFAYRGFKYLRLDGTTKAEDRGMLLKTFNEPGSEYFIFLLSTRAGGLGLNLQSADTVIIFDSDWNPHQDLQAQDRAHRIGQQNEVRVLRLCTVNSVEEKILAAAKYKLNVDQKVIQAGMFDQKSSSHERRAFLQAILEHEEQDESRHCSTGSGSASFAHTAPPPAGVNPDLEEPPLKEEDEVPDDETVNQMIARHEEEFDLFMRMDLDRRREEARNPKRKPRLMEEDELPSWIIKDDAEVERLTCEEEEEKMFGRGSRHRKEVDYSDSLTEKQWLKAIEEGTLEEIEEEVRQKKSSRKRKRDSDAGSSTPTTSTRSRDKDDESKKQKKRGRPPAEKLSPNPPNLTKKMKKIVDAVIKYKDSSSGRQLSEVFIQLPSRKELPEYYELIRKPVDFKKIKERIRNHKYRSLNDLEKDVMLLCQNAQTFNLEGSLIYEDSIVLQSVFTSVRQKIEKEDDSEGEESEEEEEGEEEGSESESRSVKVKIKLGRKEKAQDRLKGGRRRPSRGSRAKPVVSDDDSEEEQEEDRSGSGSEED
Experimental: as §1, with “On day 1, cells were treated with 120 nL DMSO or 120 nL of 3-fold serially DMSO-diluted compounds (10 points in duplicate with 30 μM as final top dose).” left out
For measurement of BRG1 degradation, a stable HeLa cell line expressing HiBit-BRG1 and LgBit was generated. The same protocol as above was then followed.
as §2

T1 sequence (P51531 whole entry, the tested form may be a part): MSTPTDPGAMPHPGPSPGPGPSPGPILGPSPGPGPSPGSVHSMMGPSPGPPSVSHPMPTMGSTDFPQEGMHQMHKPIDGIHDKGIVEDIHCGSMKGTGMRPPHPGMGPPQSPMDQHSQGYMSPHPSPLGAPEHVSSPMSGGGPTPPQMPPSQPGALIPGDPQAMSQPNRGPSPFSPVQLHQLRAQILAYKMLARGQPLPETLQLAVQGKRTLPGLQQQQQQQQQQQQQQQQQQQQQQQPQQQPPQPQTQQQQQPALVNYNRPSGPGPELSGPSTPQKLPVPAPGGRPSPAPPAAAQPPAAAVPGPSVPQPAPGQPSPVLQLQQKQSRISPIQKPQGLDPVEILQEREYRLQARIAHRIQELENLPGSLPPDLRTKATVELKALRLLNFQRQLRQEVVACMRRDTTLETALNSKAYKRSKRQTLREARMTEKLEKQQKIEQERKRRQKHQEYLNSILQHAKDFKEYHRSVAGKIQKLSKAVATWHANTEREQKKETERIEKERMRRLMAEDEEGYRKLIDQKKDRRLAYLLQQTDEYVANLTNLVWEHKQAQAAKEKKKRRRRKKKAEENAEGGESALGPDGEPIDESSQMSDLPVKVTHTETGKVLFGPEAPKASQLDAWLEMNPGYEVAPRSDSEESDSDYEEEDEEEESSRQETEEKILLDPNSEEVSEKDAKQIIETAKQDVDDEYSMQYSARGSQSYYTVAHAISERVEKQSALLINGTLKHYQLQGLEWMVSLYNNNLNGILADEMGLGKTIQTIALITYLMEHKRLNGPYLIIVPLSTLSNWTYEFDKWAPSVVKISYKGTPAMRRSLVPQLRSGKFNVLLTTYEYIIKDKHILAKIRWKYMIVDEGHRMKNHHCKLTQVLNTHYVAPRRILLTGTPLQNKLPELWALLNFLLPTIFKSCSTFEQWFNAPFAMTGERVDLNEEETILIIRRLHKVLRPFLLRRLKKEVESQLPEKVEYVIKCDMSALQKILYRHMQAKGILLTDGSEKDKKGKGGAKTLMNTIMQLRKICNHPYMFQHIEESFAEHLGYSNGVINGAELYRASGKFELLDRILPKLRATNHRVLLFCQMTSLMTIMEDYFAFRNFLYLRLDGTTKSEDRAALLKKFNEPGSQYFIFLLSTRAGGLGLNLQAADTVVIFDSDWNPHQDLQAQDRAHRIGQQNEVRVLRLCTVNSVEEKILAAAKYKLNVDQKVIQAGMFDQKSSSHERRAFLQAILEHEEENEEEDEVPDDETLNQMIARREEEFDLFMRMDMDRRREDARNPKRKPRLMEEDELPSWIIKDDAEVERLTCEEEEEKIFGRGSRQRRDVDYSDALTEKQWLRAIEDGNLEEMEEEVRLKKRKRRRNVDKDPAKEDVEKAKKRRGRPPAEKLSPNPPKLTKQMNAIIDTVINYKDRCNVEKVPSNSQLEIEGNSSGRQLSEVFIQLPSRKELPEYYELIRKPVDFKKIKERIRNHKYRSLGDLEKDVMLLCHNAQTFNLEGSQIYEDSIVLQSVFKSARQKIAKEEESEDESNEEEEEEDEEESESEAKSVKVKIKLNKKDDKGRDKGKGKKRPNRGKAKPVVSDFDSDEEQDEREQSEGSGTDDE

Row | SMILES | DC50 [1] | Dmax [2] | DC50 ([2]; read-out: BRMG1 HiBit Degradation IC50) | BRM HiBit Degradation Maximum (%) [1]
1 | Cc1ncsc1-c1ccc([C@H](C)NC(=O)[C@@H]2C[C@@H](O)CN2C(=O)[C@@H](c2cc(OCCNC(=O)[C@H]3C[C@@]4(Cc5cc(-c6ccccc6O)nnc5N4)C3)no2)C(C)C)cc1 (racemic) [Compound 70, (1R,3s)-N-(2-((5-((R)-1-((2S,4R)-4-hydroxy-2-(((S)-1-(4-(4-methylthiazol-5-yl)phenyl)ethyl)carbamoyl)pyrrolidin-1-yl)-3-methyl-1-oxobutan-2-yl)isoxazol-3-yl)oxy)ethyl)-3′-(2-hydroxyphenyl)-5′,7′-dihydrospiro[cyclobutane-1,6′-pyrrolo[2,3-c]pyridazine]-3-carboxamide] | > 100 nM | < 50% | – | B (“B” indicates maximum degradation ≥ 50%)
2 | Cc1ncsc1-c1ccc([C@H](C)NC(=O)[C@@H]2C[C@@H](O)CN2C(=O)[C@@H](c2cc(OCCNC(=O)[C@H]3C[C@]4(Cc5cc(-c6ccccc6O)nnc5N4)C3)no2)C(C)C)cc1 (racemic) [Compound 71, (1S,3r)-N-(2-((5-((R)-1-((2S,4R)-4-hydroxy-2-(((S)-1-(4-(4-methylthiazol-5-yl)phenyl)ethyl)carbamoyl)pyrrolidin-1-yl)-3-methyl-1-oxobutan-2-yl)isoxazol-3-yl)oxy)ethyl)-3′-(2-hydroxyphenyl)-5′,7′-dihydrospiro[cyclobutane-1,6′-pyrrolo[2,3-c]pyridazine]-3-carboxamide] | > 100 nM | < 50% | – | A (“A” indicates maximum degradation ≥ 75%)
3 | Cc1ncsc1-c1ccc([C@H](C)NC(=O)[C@@H]2C[C@@H](O)CN2C(=O)[C@@H](c2cc(N3C[C@@H]4C[C@H]3CN4C(=O)[C@H]3C[C@@]4(Cc5cc(-c6ccccc6O)nnc5N4)C3)no2)C(C)C)cc1 (racemic) [Compound 72, (2S,4R)-4-hydroxy-1-((R)-2-(3-((1S,4S)-5-((1S,3s)-3′-(2-hydroxyphenyl)-5′,7′-dihydrospiro[cyclobutane-1,6′-pyrrolo[2,3-c]pyridazine]-3-carbonyl)-2,5-diazabicyclo[2.2.1]heptan-2-yl)isoxazol-5-yl)-3-methylbutanoyl)-N-((S)-1-(4-(4-methylthiazol-5-yl)phenyl)ethyl)pyrrolidine-2-carboxamide] | > 1000 nM | < 50% | – | B (“B” indicates maximum degradation ≥ 50%)
4 | Cc1ncsc1-c1ccc([C@H](C)NC(=O)[C@@H]2C[C@@H](O)CN2C(=O)[C@@H](c2cc(N3C[C@H]4C[C@@H]3CN4C(=O)[C@H]3C[C@]4(Cc5cc(-c6ccccc6O)nnc5N4)C3)no2)C(C)C)cc1 (racemic) [Compound 76, (2S,4R)-4-hydroxy-1-((R)-2-(3-((1R,4R)-5-((1S,3r)-3′-(2-hydroxyphenyl)-5′,7′-dihydrospiro[cyclobutane-1,6′-pyrrolo[2,3-c]pyridazine]-3-carbonyl)-2,5-diazabicyclo[2.2.1]heptan-2-yl)isoxazol-5-yl)-3-methylbutanoyl)-N-((S)-1-(4-(4-methylthiazol-5-yl)phenyl)ethyl)pyrrolidine-2-carboxamide] | > 100 nM | < 50% | – | A (“A” indicates maximum degradation ≥ 75%)
5 | Cc1ncsc1-c1ccc([C@H](C)NC(=O)[C@@H]2C[C@@H](O)CN2C(=O)[C@@H](c2cc(N3C[C@@H]4C[C@H]3CN4C(=O)[C@H]3C[C@]4(Cc5cc(-c6ccccc6O)nnc5N4)C3)no2)C(C)C)cc1 (racemic) [Compound 78, (2S,4R)-4-hydroxy-1-((R)-2-(3-((1S,4S)-5-((1R,3r)-3′-(2-hydroxyphenyl)-5′,7′-dihydrospiro[cyclobutane-1,6′-pyrrolo[2,3-c]pyridazine]-3-carbonyl)-2,5-diazabicyclo[2.2.1]heptan-2-yl)isoxazol-5-yl)-3-methylbutanoyl)-N-((S)-1-(4-(4-methylthiazol-5-yl)phenyl)ethyl)pyrrolidine-2-carboxamide] | > 100 nM | < 50% | – | A (“A” indicates maximum degradation ≥ 75%)
6 | Cc1ncsc1-c1ccc([C@H](C)NC(=O)[C@@H]2C[C@@H](O)CN2C(=O)[C@@H](c2cc(N3C[C@H]4C[C@@H]3CN4C(=O)[C@H]3C[C@@]4(Cc5cc(-c6ccccc6O)nnc5N4)C3)no2)C(C)C)cc1 (racemic) [Compound 79, (2S,4R)-4-hydroxy-1-((R)-2-(3-((1R,4R)-5-((1R,3s)-3′-(2-hydroxyphenyl)-5′,7′-dihydrospiro[cyclobutane-1,6′-pyrrolo[2,3-c]pyridazine]-3-carbonyl)-2,5-diazabicyclo[2.2.1]heptan-2-yl)isoxazol-5-yl)-3-methylbutanoyl)-N-((S)-1-(4-(4-methylthiazol-5-yl)phenyl)ethyl)pyrrolidine-2-carboxamide] | – | < 50% | – | C (“C” indicates maximum degradation < 50%)
7 | Cc1ncsc1-c1ccc([C@H](C)NC(=O)[C@@H]2C[C@@H](O)CN2C(=O)[C@@H](c2cc(N3CCN(C(=O)[C@H]4C[C@@]5(Cc6cc(-c7ccccc7O)nnc6N5)C4)CC3)no2)C(C)C)cc1 (racemic) [Compound 80, (2S,4R)-4-hydroxy-1-((R)-2-(3-(4-((1R,3s)-3′-(2-hydroxyphenyl)-5′,7′-dihydrospiro[cyclobutane-1,6′-pyrrolo[2,3-c]pyridazine]-3-carbonyl)piperazin-1-yl)isoxazol-5-yl)-3-methylbutanoyl)-N-((S)-1-(4-(4-methylthiazol-5-yl)phenyl)ethyl)pyrrolidine-2-carboxamide] | > 10 nM | < 50% | – | A (“A” indicates maximum degradation ≥ 75%)

Now from value to compound, other results behind:

Row | DC50 [1] | Dmax [2] | DC50 ([2]; read-out: BRMG1 HiBit Degradation IC50) | SMILES | BRM HiBit Degradation Maximum (%) [1]
8 | > 10 nM | < 50% | – | Cc1ncsc1-c1ccc([C@H](C)NC(=O)[C@@H]2C[C@@H](O)CN2C(=O)[C@@H](c2cc([C@H]3CC[C@@H](c4cnc(N5CCC(c6c[nH]c7nnc(-c8ccccc8O)cc67)CC5)nc4)CC3)no2)C(C)C)cc1 (racemic) [Compound 68, (2S,4R)-4-hydroxy-N-[(1S)-1-[4-(4-methyl-1,3-thiazol-5-yl)phenyl]ethyl]-1-[(2R)-3-methyl-2-{3-[(1s,4s)-4-(2-{4-[3-(2-hydroxyphenyl)-7H-pyrrolo[2,3-c]pyridazin-5-yl]piperidin-1-yl}pyrimidin-5-yl)cyclohexyl]-1,2-oxazol-5-yl}butanoyl]pyrrolidine-2-carboxamide] | A (“A” indicates maximum degradation ≥ 75%)
9 | > 10 nM | < 50% | – | Cc1ncsc1-c1ccc([C@H](C)NC(=O)[C@@H]2C[C@@H](O)CN2C(=O)[C@@H](c2cc(C3CCN(C(=O)[C@H]4C[C@@]5(Cc6cc(-c7ccccc7O)nnc6N5)C4)CC3)no2)C(C)C)cc1 (racemic) [Compound 69, (2S,4R)-4-hydroxy-1-((R)-2-(3-(1-((1R,3s)-3′-(2-hydroxyphenyl)-5′,7′-dihydrospiro[cyclobutane-1,6′-pyrrolo[2,3-c]pyridazine]-3-carbonyl)piperidin-4-yl)isoxazol-5-yl)-3-methylbutanoyl)-N-((S)-1-(4-(4-methylthiazol-5-yl)phenyl)ethyl)pyrrolidine-2-carboxamide] | A (“A” indicates maximum degradation ≥ 75%)
10 | > 10 nM | < 50% | – | Cc1ncsc1-c1ccc([C@H](C)NC(=O)[C@@H]2C[C@@H](O)CN2C(=O)[C@@H](c2cc(N3CCC(C(=O)NC(=N)N4CCc5[nH]c6nnc(-c7ccccc7O)cc6c5C4)CC3)no2)C(C)C)cc1 (racemic) [Compound 74, 1-{5-[(2R)-1-[(2S,4R)-4-hydroxy-2-{[(1S)-1-[4-(4-methyl-1,3-thiazol-5-yl)phenyl]ethyl]carbamoyl}pyrrolidin-1-yl]-3-methyl-1-oxobutan-2-yl]-1,2-oxazol-3-yl}-N-[12-(2-hydroxyphenyl)-4,8,10,11-tetraazatricyclo[7.4.0.0^{2,7}]trideca-1(13),2(7),9,11-tetraene-4-carboximidoyl]piperidine-4-carboxamide] | A (“A” indicates maximum degradation ≥ 75%)
11 | > 10 nM | > 50% | > 100 nM | Cc1ncsc1-c1ccc([C@H](C)NC(=O)[C@@H]2C[C@@H](O)CN2C(=O)[C@@H](c2cc(C3CCN(C(=O)[C@H]4C[C@]5(Cc6cc(-c7ccccc7O)nnc6N5)C4)CC3)no2)C(C)C)cc1 (racemic) [Compound 75, (2S,4R)-4-hydroxy-1-((R)-2-(3-(1-((1S,3r)-3′-(2-hydroxyphenyl)-5′,7′-dihydrospiro[cyclobutane-1,6′-pyrrolo[2,3-c]pyridazine]-3-carbonyl)piperidin-4-yl)isoxazol-5-yl)-3-methylbutanoyl)-N-((S)-1-(4-(4-methylthiazol-5-yl)phenyl)ethyl)pyrrolidine-2-carboxamide] | A (“A” indicates maximum degradation ≥ 75%)
